The source of these data is PubChem BioAssay (NCI).

Test systems include UO-31 renal; MALME-3M melanoma; SK-OV-3 ovarian; HOP-62 NSCLC; HS 578T breast; SK-MEL-28 melanoma; TK-10 renal; OVCAR-5 ovarian; HCT-116 colon; NCI-H522 lung.
Assay in all cases: DTP human tumour cell line panel, 48 h

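How tested: cells in 96-well plates exposed to compound for 48 hours at five concentrations. GI50 is the concentration that inhibits growth by half. TGI is the concentration that stops growth completely.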

As usually defined, the GI50 is the concentration at which growth is held to half of that of the control. As a reminder, the TGI is the concentration giving total growth inhibition. Take `O=C(NO)c1cnc(N2CCN(S(=O)(=O)c3ccc4ccccc4c3)CC2)nc1`: the GI50 in the experiment on UO-31 renal was 59.7 nM; in the experiment on MALME-3M melanoma, 22.4 nM; in the experiment with SK-OV-3 ovarian it was 147 nM; with HOP-62 NSCLC it was 104 nM; with HS 578T breast it was 101 nM; with SK-MEL-28 melanoma, 62 nM. In addition, the GI50 is 43.2 nM in the experiment with TK-10 renal, 39.4 nM with OVCAR-5 ovarian, 30 nM in the experiment with HCT-116 colon and 20 nM in the experiment with NCI-H522 lung. In addition, the TGI with UO-31 renal was 854 nM; with MALME-3M melanoma it was 12600 nM; in the experiment on SK-OV-3 ovarian it was 2330 nM; in the experiment with HOP-62 NSCLC it was 5490 nM; in the experiment with HS 578T breast, more than 47300 nM; in the experiment with SK-MEL-28 melanoma, 1150 nM. Also, the TGI with TK-10 renal turned out to be 454 nM; with OVCAR-5 ovarian, 10600 nM; in the experiment with HCT-116 colon it was 10100 nM; in the experiment on NCI-H522 lung it was 104 nM.
As for `ClC1=C(Cl)C(Cl)=C(Cl)C1=Cc1ccc(Cl)cc1`, the GI50 with UO-31 renal is 539 nM; in the experiment with MALME-3M melanoma, 1420 nM; in the experiment with SK-OV-3 ovarian it was 1640 nM; in the experiment with HOP-62 NSCLC, 802 nM; in the experiment with HS 578T breast, 585 nM; in the experiment on SK-MEL-28 melanoma, 1400 nM. For the same compound, the GI50 with TK-10 renal was 331 nM; in the experiment with OVCAR-5 ovarian, 705 nM; in the experiment with HCT-116 colon, 237 nM; in the experiment with NCI-H522 lung, 230 nM. Also, the TGI was 2520 nM in the experiment on UO-31 renal; 3600 nM with MALME-3M melanoma; 3550 nM in the experiment on SK-OV-3 ovarian; 2300 nM with HOP-62 NSCLC; 2800 nM in the experiment with SK-MEL-28 melanoma; 899 nM with TK-10 renal. Further, the TGI in the experiment with OVCAR-5 ovarian was found to be 2050 nM; in the experiment on HCT-116 colon, 638 nM; in the experiment on NCI-H522 lung, 655 nM.
Take `COc1ccc(-n2sc(=O)n(Cc3ccc(COC(=O)C(C)c4ccc(CC(C)C)cc4)cc3)c2=O)cc1` (configuration not stated): the GI50 in the experiment on UO-31 renal is 819 nM; with MALME-3M melanoma, 1040 nM; in the experiment with SK-OV-3 ovarian it was 28000 nM; with HOP-62 NSCLC, 8840 nM; in the experiment with HS 578T breast, 4770 nM; in the experiment with SK-MEL-28 melanoma it was 3020 nM. For the same compound, the GI50 is 997 nM in the experiment on TK-10 renal, 5580 nM in the experiment with OVCAR-5 ovarian, 979 nM in the experiment with HCT-116 colon and 994 nM in the experiment with NCI-H522 lung. In addition, the TGI came to 1600 nM with UO-31 renal; 2300 nM with MALME-3M melanoma; 50000 nM in the experiment with SK-OV-3 ovarian; 21100 nM with HOP-62 NSCLC; 13800 nM in the experiment with HS 578T breast; 9530 nM with SK-MEL-28 melanoma. The TGI came to 2170 nM in the experiment with TK-10 renal, 11800 nM in the experiment on OVCAR-5 ovarian, 2080 nM in the experiment on HCT-116 colon and 2250 nM in the experiment on NCI-H522 lung.
`CC[C@H](C)[C@H](NC(=O)C12CC(NC(C)=O)(C1)C2)C(=O)N(C)[C@H](C[C@@H](OC(C)=O)c1nc(C(=O)N[C@@H](Cc2ccccc2)C[C@H](C)C(=O)OC)cs1)C(C)C`: the GI50 in the experiment with UO-31 renal was more than 8200 nM; in the experiment on SK-OV-3 ovarian it was 394 nM; in the experiment on HOP-62 NSCLC, 473 nM; in the experiment on HS 578T breast it was 505 nM; with SK-MEL-28 melanoma, 1810 nM; with TK-10 renal, more than 4970 nM. Moreover, the GI50 is more than 3890 nM in the experiment with OVCAR-5 ovarian, 101 nM with HCT-116 colon and 55.1 nM in the experiment on NCI-H522 lung. For the same compound, the TGI was more than 16700 nM in the experiment with UO-31 renal; more than 16700 nM in the experiment on MALME-3M melanoma; more than 10900 nM in the experiment on SK-OV-3 ovarian; more than 10400 nM with HOP-62 NSCLC; more than 9510 nM in the experiment with HS 578T breast; more than 16700 nM with SK-MEL-28 melanoma. Besides, the TGI in the experiment with TK-10 renal is more than 16700 nM; in the experiment on OVCAR-5 ovarian, more than 16700 nM; in the experiment on HCT-116 colon, more than 16700 nM; with NCI-H522 lung, 450 nM.
On to `CCN1C(=O)N(CC)C2C1NN=c1s/c(=C\c3ccccc3)c(=O)n12` (configuration not stated), for which the GI50 with UO-31 renal is 490 nM; in the experiment with MALME-3M melanoma, 1090 nM; in the experiment with SK-OV-3 ovarian, 311 nM; in the experiment on HOP-62 NSCLC it was 377 nM; in the experiment with HS 578T breast, 146 nM; in the experiment on SK-MEL-28 melanoma, more than 49100 nM. Besides, the GI50 was 32800 nM with TK-10 renal, 498 nM in the experiment with OVCAR-5 ovarian, 78.6 nM with HCT-116 colon and 110 nM in the experiment with NCI-H522 lung. Moreover, the TGI with UO-31 renal, in the experiment with MALME-3M melanoma, in the experiment with SK-OV-3 ovarian, in the experiment with HOP-62 NSCLC, with HS 578T breast and in the experiment with SK-MEL-28 melanoma was more than 100000 nM in each case. For the same compound, the TGI with TK-10 renal, in the experiment with OVCAR-5 ovarian and in the experiment on HCT-116 colon was more than 100000 nM throughout.
For the compound `O=C1c2cccc3cc([N+](=O)[O-])cc(c23)C(=O)N1O`, the TGI in the experiment on UO-31 renal, in the experiment with MALME-3M melanoma, with SK-OV-3 ovarian, in the experiment with HOP-62 NSCLC, with HS 578T breast and in the experiment with SK-MEL-28 melanoma was more than 100000 nM in each case. Further, the TGI in the experiment on TK-10 renal was 83600 nM; in the experiment on OVCAR-5 ovarian, more than 100000 nM; in the experiment with HCT-116 colon, more than 100000 nM; in the experiment with NCI-H522 lung, more than 100000 nM.
As for `O=C1c2ccccc2C(=O)c2sc(Nc3ccc(Cl)c(Cl)c3)nc21`, the TGI turned out to be 4970 nM in the experiment on UO-31 renal; 9470 nM with MALME-3M melanoma; 32100 nM with SK-OV-3 ovarian; 21300 nM in the experiment on HOP-62 NSCLC; 53200 nM with HS 578T breast; 20700 nM in the experiment on SK-MEL-28 melanoma. Further, the TGI in the experiment with TK-10 renal was 21800 nM; with OVCAR-5 ovarian, 7580 nM; with HCT-116 colon, 7300 nM; in the experiment with NCI-H522 lung it was 4660 nM.
`O=C(Nc1ccc(S(=O)(=O)NC2CCCCCC2)cc1)C(c1ccccc1)S(=O)(=O)c1ccc(F)cc1` (configuration not stated): the GI50 in the experiment with UO-31 renal was 202 nM; with MALME-3M melanoma it was 250 nM; in the experiment on SK-OV-3 ovarian, 335 nM; in the experiment on HOP-62 NSCLC it was 970 nM; in the experiment on HS 578T breast it was 588 nM; in the experiment with SK-MEL-28 melanoma, 245 nM. For the same compound, the GI50 is 331 nM in the experiment on TK-10 renal, 374 nM in the experiment on OVCAR-5 ovarian, 185 nM in the experiment on HCT-116 colon and 318 nM in the experiment on NCI-H522 lung. Also, the TGI in the experiment with UO-31 renal is 3520 nM; in the experiment with MALME-3M melanoma it was 1810 nM; with SK-OV-3 ovarian, 4030 nM; in the experiment on HOP-62 NSCLC, 3860 nM; in the experiment on HS 578T breast it was 3050 nM; in the experiment on SK-MEL-28 melanoma, 1020 nM. For the same compound, the TGI with TK-10 renal stood at 3660 nM; in the experiment with OVCAR-5 ovarian it was 3150 nM; in the experiment on HCT-116 colon, 1700 nM; with NCI-H522 lung it was 2940 nM.
